Laboratory results: patent US8304371B2, “Insecticidal arylpyrrolines” (Bayer Cropscience AG, priority 2008, dated 2012)

What was measured:
Format in all cases: in vivo
[1] = test system: Two-Spotted Spider Mite (Tetranvchus urticae); assay: Test against two-spotted spider mite, spray on kidney bean; settings: active compound concentration 100 ppm; adult mites; after 7 days
Method: (§1) Unless nomentioned otherwise, the test solutions were prepared as follows:
(§2) Containing as solvent: Dimethylformamide, 3 parts by weight; and as emulsifier: Polyoxyethylene alkyl phenyl ether, 1 part by weight
(§3) To prepare the test solution, 1 part by weight of an active compound is mixed with the above-mentioned amount of solvent containing the above-mentioned amount of emulsifier, and the mixture is diluted with water to the desired concentration.
50 to 100 adult two-spotted spider mites were inoculated onto the leaves of kidney beans at the two-true leaf stage, which plant had been cultivated in a pot having a diameter of 6 cm. After one day, test solution at the appropriate concentration was sprayed thereon in a sufficient amount using a spray gun. After the spraying, the plant pot was placed inside a greenhouse, and after 7 days, the acaricidal activity was calculated. An acaricidal activity of 100% means that all mites were killed, whereas an acaricidal activity of 0% means that no mite was killed.

[2] = test system: Cucurbit Leaf Beetle (Aulacophora femoralis); assay: Test against cucurbit leaf beetle, cucumber leaf dip; settings: active compound concentration 100 ppm; second-instar larvae; after 7 days
Method: as §1, §2, §3
Cucumber leaves were immersed in the test solution at the appropriate concentration, and the leaves were dried in air. The leaves were then placed in a plastic cup containing aseptically sterilized black soil, and five second-instar larvae of cucurbit leaf beetle were released therein. After 7 days, the number of dead larvae was counted, and thus the insecticidal activity was calculated. An insecticidal activity of 100% means that all beetles were killed, whereas an insecticidal activity of 0% means that no beetle was killed.

[3] = test system: Strain of Green Peach Aphid (Mvzus persicas) which is Resistant to Organic Phosphorus and Carbamate Agents; assay: Test against resistant green peach aphid, spray on egg plant; settings: active compound concentration 500 ppm; after 7 days
Method: as §1, §2, §3
About 30 to 50 of the resistant green peach aphids were inoculated per seedling, onto the leaves of egg plant at the two-true leaf stage, which plant had been cultivated in a pot having a diameter of 6 cm. One day after the inoculation, the test solution at the appropriate concentration was sprayed thereon in a sufficient amount using a spray gun. After the spraying, the plant pot was placed in a greenhouse at 28° C., and after 7 days, the insecticidal activity was calculated. An insecticidal activity of 100% means that all aphids were killed, whereas an insecticidal activity of […] means that no aphid was killed. The test was repeated two times.

[4] = test system: Tobacco Cutworm (Spodoptera litura) Larvae; assay: Test against tobacco cutworm (Spodoptera litura) larvae, leaf dip; settings: active compound concentration 100 ppm; third-instar larvae; after 7 days
Method: as §1, §2, §3
The leaves of sweet potato were immersed in the test solution at the appropriate concentration, and the leaves were dried in air. The leaves were then placed in a petri dish having a diameter of 9 cm, and ten third-instar larvae of tobacco cutworm were released therein. The petri dish was placed in a temperature chamber at 25° C. After 2 days and 4 days sweet potato leaves were additionally added. After 7 days, the number of dead larvae was counted, to calculate the insecticidal activity. An insecticidal activity of 100% means that all larvae were killed, whereas an insecticidal activity of 0% means that no larva was killed. In the current test, the results of two petri dishes for each partition were averaged.

O=C(CC(F)(F)F)NCc1ccc(C2=NCC(c3cc(Cl)c(Cl)c(Cl)c3)(C(F)(F)F)C2)c2ccccc12 (stereo not drawn) [11-8]
100%: acaricidal activity [1] | insecticidal activity [2] | insecticidal activity [3] | insecticidal activity [4]

N#Cc1cc(C2=NCC(c3cc(Br)cc(Br)c3)(C(F)(F)F)C2)ccc1-n1cncn1 (stereo not drawn) [1-94]
100%: acaricidal activity [1] | insecticidal activity [2] | insecticidal activity [3] | insecticidal activity [4]

O=C(NCc1ccc(C2=NCC(c3cc(Cl)cc(Cl)c3)(C(F)(F)F)C2)cc1C(F)(F)F)C1CC1 (racemic) [2-212]
100%: acaricidal activity [1] | insecticidal activity [2] | insecticidal activity [3]

CCNC(=O)NCc1ccc(C2=NCC(c3cc(Cl)c(Cl)c(Cl)c3)(C(F)(F)F)C2)cc1Br (stereo not drawn) [2-195]
100%: acaricidal activity [1] | insecticidal activity [2] | insecticidal activity [3] | insecticidal activity [4]

O=C(NCc1ccc(C2=NCC(c3cc(C(F)(F)F)cc(C(F)(F)F)c3)(C(F)(F)F)C2)cc1Br)C1CC1 (stereo not drawn) [2-179]
100%: acaricidal activity [1] | insecticidal activity [2] | insecticidal activity [3] | insecticidal activity [4]

O=C(CC(F)(F)F)NCc1ccc(C2=NCC(c3cc(Cl)c(Cl)c(Cl)c3)(C(F)(F)F)C2)cc1Cl (stereo not drawn) [2-159]
100%: acaricidal activity [1] | insecticidal activity [2] | insecticidal activity [3] | insecticidal activity [4]

O=C(NCc1ccc(C2=NCC(c3cc(Cl)c(Cl)c(Cl)c3)(C(F)(F)F)C2)c2ccccc12)C1CC1 (stereo not drawn) [11-7]
100%: acaricidal activity [1] | insecticidal activity [2] | insecticidal activity [3] | insecticidal activity [4]

N#Cc1cc(C2=NCC(c3cc(Cl)cc(C(F)(F)F)c3)(C(F)(F)F)C2)ccc1-n1cncn1 (stereo not drawn) [1-95]
100%: acaricidal activity [1] | insecticidal activity [2] | insecticidal activity [3] | insecticidal activity [4]

CC(=O)NCc1ccc(C2=NCC(c3cc(C(F)(F)F)cc(C(F)(F)F)c3)(C(F)(F)F)C2)cc1C(F)(F)F (stereo not drawn) [2-165]
100%: acaricidal activity [1] | insecticidal activity [2] | insecticidal activity [3] | insecticidal activity [4]

CSCC(=O)NCc1ccc(C2=NCC(c3cc(Cl)c(Cl)c(Cl)c3)(C(F)(F)F)C2)cc1C(F)(F)F (racemic) [2-209]
100%: acaricidal activity [1] | insecticidal activity [2] | insecticidal activity [3] | insecticidal activity [4]

CC(=O)NCc1ccc(C2=NCC(c3cc(Cl)c(Cl)c(Cl)c3)(C(F)(F)F)C2)cc1Cl (stereo not drawn) [2-156]
100%: acaricidal activity [1] | insecticidal activity [2] | insecticidal activity [3] | insecticidal activity [4]

O=C(NCc1ccc(C2=NCC(c3cc(Cl)c(Cl)c(Cl)c3)(C(F)(F)F)C2)cc1Cl)C1CC1 (stereo not drawn) [2-158]
100%: acaricidal activity [1] | insecticidal activity [2] | insecticidal activity [3] | insecticidal activity [4]

O=C(CC(F)(F)F)NCc1ccc(C2=NCC(c3cc(Cl)cc(Cl)c3)(C(F)(F)F)C2)cc1C(F)(F)F (racemic) [2-211]
100%: acaricidal activity [1] | insecticidal activity [2] | insecticidal activity [3]

O=C(CC(F)(F)F)NCc1ccc(C2=NCC(c3cc(Cl)cc(Cl)c3)(C(F)(F)F)C2)cc1Br (stereo not drawn) [2-154]
100%: acaricidal activity [1] | insecticidal activity [2] | insecticidal activity [4]

O=C(NCc1ccc(C2=NCC(c3cc(C(F)(F)F)cc(C(F)(F)F)c3)(C(F)(F)F)C2)cc1C(F)(F)F)C1CC1 (stereo not drawn) [2-167]
100%: acaricidal activity [1] | insecticidal activity [2] | insecticidal activity [3] | insecticidal activity [4]

CCC(=O)NCc1ccc(C2=NCC(c3cc(Cl)c(Cl)c(Cl)c3)(C(F)(F)F)C2)cc1Cl (stereo not drawn) [2-157]
100%: acaricidal activity [1] | insecticidal activity [2] | insecticidal activity [3] | insecticidal activity [4]

O=C(CC(F)(F)F)NCc1ccc(C2=NCC(c3cc(C(F)(F)F)cc(C(F)(F)F)c3)(C(F)(F)F)C2)cc1Br (stereo not drawn) [2-180]
100%: acaricidal activity [1] | insecticidal activity [2] | insecticidal activity [3] | insecticidal activity [4]

O=C(CC(F)(F)F)NCc1ccc(C2=NCC(c3cc(Cl)c(Cl)c(Cl)c3)(C(F)(F)F)C2)cc1C(F)(F)F (stereo not drawn) [2-164]
100%: acaricidal activity [1] | insecticidal activity [2] | insecticidal activity [3] | insecticidal activity [4]

CC(=O)NCc1ccc(C2=NCC(c3cc(Cl)cc(Cl)c3)(C(F)(F)F)C2)cc1C(F)(F)F (stereo not drawn) [2-160]
100%: acaricidal activity [1] | insecticidal activity [2] | insecticidal activity [3] | insecticidal activity [4]

CC(=O)NCc1ccc(C2=NCC(c3cc(Cl)c(Cl)c(Cl)c3)(C(F)(F)F)C2)c2ccccc12 (stereo not drawn) [11-5]
100%: acaricidal activity [1] | insecticidal activity [2] | insecticidal activity [3] | insecticidal activity [4]

CCC(=O)NCc1ccc(C2=NCC(c3cc(Cl)c(Cl)c(C(F)(F)F)c3)(C(F)(F)F)C2)cc1C(F)(F)F (stereo not drawn) [2-205]
100%: acaricidal activity [1] | insecticidal activity [2] | insecticidal activity [3] | insecticidal activity [4]

O=C(NCc1ccc(C2=NCC(c3cc(Cl)c(Cl)c(C(F)(F)F)c3)(C(F)(F)F)C2)cc1Br)C1CC1 (stereo not drawn) [2-172]
100%: acaricidal activity [1] | insecticidal activity [2] | insecticidal activity [3] | insecticidal activity [4]

CCC(=O)NCc1ccc(C2=NCC(c3cc(Cl)c(Cl)c(Cl)c3)(C(F)(F)F)C2)cc1C(F)(F)F (stereo not drawn) [2-162]
100%: acaricidal activity [1] | insecticidal activity [2] | insecticidal activity [3] | insecticidal activity [4]

CCC(=O)NCc1ccc(C2=NCC(c3cc(C(F)(F)F)cc(C(F)(F)F)c3)(C(F)(F)F)C2)cc1C(F)(F)F (stereo not drawn) [2-166]
100%: acaricidal activity [1] | insecticidal activity [2] | insecticidal activity [3] | insecticidal activity [4]

CCC(=O)NCc1ccc(C2=NCC(c3cc(Cl)cc(Cl)c3)(C(F)(F)F)C2)cc1Br (stereo not drawn) [2-19]
100%: insecticidal activity [2] | insecticidal activity [4]

O=C(NCc1ccc(C2=NCC(c3cc(Cl)c(Cl)c(Cl)c3)(C(F)(F)F)C2)cc1C(F)(F)F)C1CC1 (stereo not drawn) [2-163]
100%: acaricidal activity [1] | insecticidal activity [2] | insecticidal activity [3] | insecticidal activity [4]

O=C(NCc1ccc(C2=NCC(c3cc(Cl)c(Cl)c(Cl)c3)(C(F)(F)F)C2)cc1Br)C1CC1 (stereo not drawn) [2-170]
100%: acaricidal activity [1] | insecticidal activity [2] | insecticidal activity [3] | insecticidal activity [4]

O=C(NCc1ccc(C2=NCC(c3cc(Cl)cc(Cl)c3)(C(F)(F)F)C2)cc1Br)C1CC1 (stereo not drawn) [2-153]
100%: insecticidal activity [2] | insecticidal activity [4]
